For one assay, the system named is MCF-7 cells. As to the kind of experiment: Breast Cancer Cell Viability Assays (MCF-7, CellTiter-Glo). The format is cell-based. Particulars: 5 days' compound exposure; for IC50: Homo sapiens, MCF7, 120 h. Summed up:
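MCF-7 cells (320/well, RPMI with 10% FBS) exposed for 5 days to an eleven-point semilog series, 0.3–0.000003 μM final. Viability read by CellTiter-Glo luminescence, expressed as background-corrected percent of untreated cells.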
(In ATP-based viability assays light output follows the ATP content of the culture.)

The target of the next assay is T1, ER-α in MCF-7 cells (Homo sapiens, UniProt P03372).
T1 construct: endogenous in cells; host or cells: MCF-7
T1 sequence (P03372 1-595): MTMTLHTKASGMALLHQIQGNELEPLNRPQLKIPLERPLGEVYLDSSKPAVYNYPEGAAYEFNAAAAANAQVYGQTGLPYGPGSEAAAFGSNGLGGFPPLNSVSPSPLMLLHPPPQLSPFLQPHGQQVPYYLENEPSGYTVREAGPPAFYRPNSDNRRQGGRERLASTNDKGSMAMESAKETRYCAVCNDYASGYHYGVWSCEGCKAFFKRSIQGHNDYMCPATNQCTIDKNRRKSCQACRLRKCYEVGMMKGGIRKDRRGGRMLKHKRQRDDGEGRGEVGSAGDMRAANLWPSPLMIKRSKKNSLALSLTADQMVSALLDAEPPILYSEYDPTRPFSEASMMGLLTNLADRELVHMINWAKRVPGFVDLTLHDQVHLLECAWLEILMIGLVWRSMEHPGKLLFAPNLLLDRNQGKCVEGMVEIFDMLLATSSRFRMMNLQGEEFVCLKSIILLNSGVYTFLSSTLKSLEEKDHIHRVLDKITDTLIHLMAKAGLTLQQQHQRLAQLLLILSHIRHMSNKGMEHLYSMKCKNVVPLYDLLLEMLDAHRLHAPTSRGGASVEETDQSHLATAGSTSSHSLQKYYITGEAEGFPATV
As to the kind of experiment: Breast Cancer Cell ER-α In Cell Western Assay (SP1). The settings on record: 4 or 24 hr post compound addition; for Emax: MCF7, SP1 antibody, read-out: ER-α In Cell Western Assay (SP1) Max Response; for DC50: SP1 antibody, read-out: ER-α In Cell Western Assay (SP1) IC50. The class given is cell-based. The essentials:
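MCF-7 cells in charcoal-stripped FBS medium, treated with 11-point semilog dilutions (0.3–0.000003 μM final) for 4 or 24 h. Fixed cells immunostained with SP1 antibody (800 nm) and DRAQ5 DNA (700 nm); ER/DNA ratio expressed as % of untreated cells.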

Some results are limits rather than exact numbers.

As for `COc1ncc(/C(=C(\c2ccc(/C=C/C(=O)O)cc2)c2ccc3[nH]nc(F)c3c2)C2CCC2)c(C(F)(F)F)n1` [Example 111, (E)-3-(4-((E)-2-Cyclobutyl-1-(3-fluoro-1H-indazol-5-yl)-2-(2-methoxy-4-(trifluoromethyl)pyrimidin-5-yl)vinyl)phenyl)acrylic acid], in the assay with MCF-7 cells, the “MCF7 Viability Assay Max Response” value is “++ (++ = a single % value ≧ 40%)” and the IC50 is at most 100 nM. At ER-α in MCF-7 cells, the Emax was at least 40% and the DC50 was at most 100 nM.
On to `COc1cc(C)c(/C(=C(\c2ccc(/C=C/C(=O)O)cc2)c2ccc3[nH]nc(F)c3c2)C2CCC2)cn1` [Example 112, (E)-3-(4-((E)-2-Cyclobutyl-1-(3-fluoro-1H-indazol-5-yl)-2-(6-methoxy-4-methylpyridin-3-yl)vinyl)phenyl)acrylic acid], for which, in the assay on MCF-7 cells, the “MCF7 Viability Assay Max Response” value is given as “++ (++ = a single % value ≧ 40%)” and the half-inhibitory concentration (IC50) is at most 100 nM. Besides, at ER-α in MCF-7 cells, the Emax was at least 40% and the DC50 was at most 100 nM.
Consider `COc1ccc(/C(=C(\c2ccc(/C=C/C(=O)O)cc2)c2ccc3[nH]nc(F)c3c2)C2CC2)c(F)c1` [Example 113, (E)-3-(4-((E)-2-Cyclopropyl-1-(3-fluoro-1H-indazol-5-yl)-2-(2-fluoro-4-methoxyphenyl)vinyl)phenyl)acrylic acid], for which, in the assay on MCF-7 cells, the “MCF7 Viability Assay Max Response” value is reported as “++ (++ = a single % value ≧ 40%)” and the IC50 is at most 100 nM. In addition, on ER-α in MCF-7 cells, the Emax is at least 40% and the DC50 is at most 100 nM.
Regarding `COc1ccc(/C(=C(\c2ccc(/C=C/C(=O)O)cc2)c2ccc3[nH]nc(F)c3c2)C2CC2)c(Cl)c1` [Example 114, (E)-3-(4-((E)-2-(2-Chloro-4-methoxyphenyl)-2-cyclopropyl-1-(3-fluoro-1H-indazol-5-yl)vinyl)phenyl)acrylic acid], in the assay with MCF-7 cells, the “MCF7 Viability Assay Max Response” value was “++ (++ = a single % value ≧ 40%)” and the half-maximal inhibitory concentration (IC50) is at most 100 nM. Also, at ER-α in MCF-7 cells, the Emax was at least 40% and the DC50 is at most 100 nM.
As to `COc1ccc(/C(=C(\c2ccc(/C=C/C(=O)O)cc2)c2ccc3[nH]nc(F)c3c2)C2CC2)c(C)c1` [Example 115, (E)-3-(4-((E)-2-Cyclopropyl-1-(3-fluoro-1H-indazol-5-yl)-2-(4-methoxy-2-methylphenyl)vinyl)phenyl)acrylic acid], in the assay on MCF-7 cells, the “MCF7 Viability Assay Max Response” value was “++ (++ = a single % value ≧ 40%)” and the IC50 was at most 100 nM. At ER-α in MCF-7 cells, the Emax is at least 40% and the DC50 was at most 100 nM.
As for `COc1cc(C)c(/C(=C(\c2ccc(/C=C/C(=O)O)cc2)c2ccc3[nH]nc(F)c3c2)C2CC2)cn1` [Example 116, (E)-3-(4-((E)-2-Cyclopropyl-1-(3-fluoro-1H-indazol-5-yl)-2-(6-methoxy-4-methylpyridin-3-yl)vinyl)phenyl)acrylic acid], in the assay on MCF-7 cells, the “MCF7 Viability Assay Max Response” value is “++ (++ = a single % value ≧ 40%)” and the IC50 was at most 100 nM. Moreover, on ER-α in MCF-7 cells, the Emax is at least 40% and the DC50 was at most 100 nM.
For `CCOc1cc(C)c(/C(=C(\c2ccc(/C=C/C(=O)O)cc2)c2ccc3[nH]nc(F)c3c2)C2CC2)cn1` [Example 117, (E)-3-(4-((E)-2-Cyclopropyl-2-(6-ethoxy-4-methylpyridin-3-yl)-1-(3-fluoro-1H-indazol-5-yl)vinyl)phenyl)acrylic acid], in the assay with MCF-7 cells, the “MCF7 Viability Assay Max Response” value is given as “++ (++ = a single % value ≧ 40%)” and the IC50 is at most 100 nM. In addition, at ER-α in MCF-7 cells, the Emax was at least 40% and the DC50 was at most 100 nM.
For `Cc1cc(C#N)ccc1/C(=C(\c1ccc(/C=C/C(=O)O)cc1)c1ccc2[nH]nc(F)c2c1)C1CC1` [Example 118, (E)-3-(4-((E)-2-(4-Cyano-2-methylphenyl)-2-cyclopropyl-1-(3-fluoro-1H-indazol-5-yl)vinyl)phenyl)acrylic acid], in the assay on MCF-7 cells, the “MCF7 Viability Assay Max Response” value was “++ (++ = a single % value ≧ 40%)” and the IC50 was at most 100 nM. Besides, at ER-α in MCF-7 cells, the Emax was at least 40% and the DC50 was at most 100 nM.
With `N#Cc1ccc(/C(=C(\c2ccc(/C=C/C(=O)O)cc2)c2ccc3[nH]nc(F)c3c2)C2CC2)c(Cl)c1` [Example 119, (E)-3-(4-((E)-2-(2-Chloro-4-cyanophenyl)-2-cyclopropyl-1-(3-fluoro-1H-indazol-5-yl)vinyl)phenyl)acrylic acid], in the assay with MCF-7 cells, the “MCF7 Viability Assay Max Response” value is reported as “++ (++ = a single % value ≧ 40%)” and the IC50 was at most 100 nM. In addition, on ER-α in MCF-7 cells, the Emax is at least 40% and the DC50 was at most 100 nM.
`N#Cc1cc(Cl)ccc1/C(=C(\c1ccc(/C=C/C(=O)O)cc1)c1ccc2[nH]nc(F)c2c1)C1CC1` [Example 120, (E)-3-(4-((E)-2-(4-Chloro-2-cyanophenyl)-2-cyclopropyl-1-(3-fluoro-1H-indazol-5-yl)vinyl)phenyl)acrylic acid]: in the assay with MCF-7 cells, the “MCF7 Viability Assay Max Response” value is reported as “++ (++ = a single % value ≧ 40%)” and the IC50 was at most 100 nM. Moreover, at ER-α in MCF-7 cells, the Emax is at least 40% and the DC50 was at most 100 nM.
As for `COc1ccc(/C(=C(\c2ccc(/C=C/C(=O)O)cc2)c2ccc3[nH]nc(F)c3c2)C2CC2)c(C#N)c1` [Example 121, (E)-3-(4-((E)-2-(2-Cyano-4-methoxyphenyl)-2-cyclopropyl-1-(3-fluoro-1H-indazol-5-yl)vinyl)phenyl)acrylic acid], in the assay on MCF-7 cells, the “MCF7 Viability Assay Max Response” value was “++ (++ = a single % value ≧ 40%)” and the IC50 is at most 100 nM. Moreover, at ER-α in MCF-7 cells, the Emax was at least 40% and the DC50 is at most 100 nM.
On to `CS(=O)(=O)c1cnc(Oc2ccc(/C(=C(\c3ccc(/C=C/C(=O)O)cc3)c3ccc4[nH]nc(F)c4c3)C3CCC3)cc2)cn1` [Example 122, (E)-3-(4-((E)-2-Cyclobutyl-1-(3-fluoro-1H-indazol-5-yl)-2-(4-((5-(methylsulfonyl)pyrazin-2-yl)oxy)phenyl)vinyl)phenyl)acrylic acid], for which, in the assay on MCF-7 cells, the “MCF7 Viability Assay Max Response” value was “++ (++ = a single % value ≧ 40%)” and the concentration for half-maximal inhibition (IC50) was at most 100 nM. On ER-α in MCF-7 cells, the Emax was at least 40% and the DC50 was at most 100 nM.
Regarding `O=C(O)/C=C/c1ccc(/C(=C(\c2ccccc2F)C2CCC2)c2ccc3[nH]nc(F)c3c2)cc1` [Example 123, (E)-3-(4-((E)-2-Cyclobutyl-1-(3-fluoro-1H-indazol-5-yl)-2-(2-fluorophenyl)vinyl)phenyl)acrylic acid], in the assay with MCF-7 cells, the “MCF7 Viability Assay Max Response” value is “++ (++ = a single % value ≧ 40%)” and the IC50 was at most 100 nM. At ER-α in MCF-7 cells, the Emax was at least 40% and the DC50 was at most 100 nM.
`O=C(O)/C=C/c1ccc(/C(=C(\c2ccccc2Cl)C2CCC2)c2ccc3[nH]nc(F)c3c2)cc1` [Example 124, (E)-3-(4-((E)-2-(2-Chlorophenyl)-2-cyclobutyl-1-(3-fluoro-1H-indazol-5-yl)vinyl)phenyl)acrylic acid]: in the assay on MCF-7 cells, the “MCF7 Viability Assay Max Response” value is on record as “++ (++ = a single % value ≧ 40%)” and the IC50 is at most 100 nM. Besides, at ER-α in MCF-7 cells, the Emax was at least 40% and the DC50 is at most 100 nM.
Take `Cc1ccccc1/C(=C(\c1ccc(/C=C/C(=O)O)cc1)c1ccc2[nH]nc(F)c2c1)C1CCC1` [Example 125, (E)-3-(4-((E)-2-Cyclobutyl-1-(3-fluoro-1H-indazol-5-yl)-2-(o-tolyl)vinyl)phenyl)acrylic acid]: in the assay on MCF-7 cells, the “MCF7 Viability Assay Max Response” value is “++ (++ = a single % value ≧ 40%)” and the half-maximal inhibitory concentration (IC50) is at most 100 nM. Also, on ER-α in MCF-7 cells, the Emax is at least 40% and the DC50 is at most 100 nM.
For `Cc1cscc1/C(=C(\c1ccc(/C=C/C(=O)O)cc1)c1cccc2[nH]ncc12)C1CCC1` [Example 126, (E)-3-(4-((E)-2-Cyclobutyl-1-(1H-indazol-4-yl)-2-(4-methylthiophen-3-yl)vinyl)phenyl)acrylic acid], in the assay with MCF-7 cells, the “MCF7 Viability Assay Max Response” value is given as “++ (++ = a single % value ≧ 40%)” and the half-maximal inhibitory concentration (IC50) is at most 100 nM. In addition, on ER-α in MCF-7 cells, the Emax was at least 40% and the DC50 is at most 100 nM.
As to `COc1cc(C)c(/C(=C(\c2ccc(/C=C/C(=O)O)cc2)c2cccc3[nH]ncc23)C2CCC2)cn1` [Example 127, (E)-3-(4-((E)-2-Cyclobutyl-1-(1H-indazol-4-yl)-2-(6-methoxy-4-methylpyridin-3-yl)vinyl)phenyl)acrylic acid], in the assay with MCF-7 cells, the “MCF7 Viability Assay Max Response” value is recorded as “++ (++ = a single % value ≧ 40%)” and the IC50 is at most 100 nM. Further, on ER-α in MCF-7 cells, the Emax was at least 40% and the DC50 is at most 100 nM.
With `O=C(O)/C=C/c1ccc(/C(=C(\c2cccnc2)C2CCC2)c2ccc3[nH]nc(F)c3c2)cc1` [Example 128, (E)-3-(4-((E)-2-Cyclobutyl-1-(3-fluoro-1H-indazol-5-yl)-2-(pyridin-3-yl)vinyl)phenyl)acrylic acid], in the assay with MCF-7 cells, the “MCF7 Viability Assay Max Response” value is recorded as “+ (+ = a single % value < 40%)” and the IC50 is over 100 nM. Moreover, at ER-α in MCF-7 cells, the Emax is at least 40% and the DC50 is at most 100 nM.

One may read the IC50 as the concentration at which inhibition is half-maximal. A higher IC50 goes with a need for much substance.

The values are drawn from patent US9499538B2, “Estrogen receptor modulators and uses thereof” (Seragon Pharmaceuticals, Inc., priority 2012, dated 2016).
